Columns and labels:
barnyardgrass [1] = test: Test B pre-/postemergence herbicide test; format: in vivo, Echinochloa crus-galli
How it was run: (§1)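 Flooded paddy rice and barnyardgrass were treated at the 2-leaf stage; upland plantings received compound either on sown seed or on 1- to 4-leaf seedlings. All were kept 13–15 days in a greenhouse and scored visually, 0–100, relative to untreated plants.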

Surinam grass = test: Test B pre-/postemergence herbicide test; format: in vivo, Urochloa decumbens
How it was run: (§2)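 Herbicidal effect was judged by eye on a 0–100 scale after plants stood 13 to 15 days in the greenhouse following pre- or postemergence treatment with surfactant-containing formulations.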

cocklebur = test: Test B pre-/postemergence herbicide test; format: in vivo, Xanthium strumarium
How it was run: as §1

large crabgrass = test: Test B pre-/postemergence herbicide test; format: in vivo, Digitaria sanguinalis
How it was run: as §2

giant foxtail = test: Test B pre-/postemergence herbicide test; format: in vivo, Setaria faberi
How it was run: as §2

lambsquarters = test: Test B pre-/postemergence herbicide test; format: in vivo, Chenopodium album
How it was run: as §2

morningglory = test: Test B pre-/postemergence herbicide test; format: in vivo, Ipomoea coccinea
How it was run: as §1

pigweed = test: Test B pre-/postemergence herbicide test; format: in vivo, Amaranthus retroflexus
How it was run: as §2

velvetleaf = test: Test B pre-/postemergence herbicide test; format: in vivo, Abutilon theophrasti
How it was run: as §2

wheat = test: Test B postemergence herbicide test; format: in vivo, Triticum aestivum; design: key to Wheat plant response rating: 0 = no effect, 100 = complete control
How it was run: (§3)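 Formulated test chemicals went onto postemergence plants measuring 2 to 18 cm, at one to four leaves. For the paddy assay, species had reached two leaves. Scoring took place 13–15 days later by eye, relative to untreated plants, using 0 for no effect up to 100 for full control.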

wild oat = test: Test B postemergence herbicide test; format: in vivo, Avena fatua
How it was run: as §3

rice = test: Test B flooded paddy test; format: in vivo, Oryza sativa; conditions: 1000 g ai/ha, scale 0 to 100 (0 no effect, 100 complete control)
How it was run: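 Treated at 2-leaf (paddy) or 1–4-leaf, 2–18 cm (postemergence); greenhouse 13–15 d; visual score vs control, 0 none to 100 complete control; dash = not tested.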

[2] = system: small flower umbrella sedge; test: Test B flooded paddy test; format: in vivo, Cyperus difformis; conditions: 1000 g ai/ha, scale 0 to 100 (0 no effect, 100 complete control)
How it was run: (§4)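 After treating 2-leaf paddy plants or 2–18 cm postemergence plants (1 to 4 leaves) with formulated chemical, researchers kept them in a greenhouse for 13–15 days. Effects were judged visually versus controls: 0 indicates none, 100 total control.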

ducksalad = test: Test B flooded paddy test; format: in vivo, Heteranthera limosa; conditions: 1000 g ai/ha, scale 0 to 100 (0 no effect, 100 complete control)
How it was run: as §4

barnyardgrass [3] = test: Test B flooded paddy test; format: in vivo, Echinochloa crus-galli; conditions: 1000 g ai/ha, scale 0 to 100 (0 no effect, 100 complete control)
How it was run: as §4

[4] = 500 g ai/ha, visual rating 0-100, 0 no effect, 100 complete control, preemergence
[5] = Postemergence, 500 g ai/ha, visual rating after 13 to 15 days, scale 0 (no effect) to 100 (complete control)
[6] = postemergence, 125 g ai/ha, visual rating, scale 0 (no effect) to 100 (complete control)
[7] = preemergence, 125 g ai/ha, 0 to 100 scale, 0 is no effect, 100 is complete control
[8] = 125 g ai/ha, 0 = no effect, 100 = complete control, preemergence
[9] = 500 g ai/ha, visual rating, 0 = no effect, 100 = complete control, preemergence
[10] = postemergence, 500 g ai/ha, visual rating, scale 0 (no effect) to 100 (complete control)
[11] = postemergence, 500 g ai/ha, scale 0 to 100, 0 is no effect, 100 is complete control
[12] = 125 g ai/ha, 0 is no effect, 100 is complete control, preemergence
[13] = 125 g ai/ha, visual rating, scale 0 (no effect) to 100 (complete control), postemergence
[14] = Postemergence, 500 g ai/ha, scale 0 (no effect) to 100 (complete control)

CCC(=NO)c1cccc(NC(=O)c2cc(C(C)(C)C)nn2C)c1 [Compound 118]
100: Plant response rating, Crabgrass, Large (large crabgrass; [4]) | Plant response rating, Pigweed (pigweed; [5])
90: Plant response rating, Barnyardgrass (barnyardgrass [1]; [4]) | Plant response rating, Cocklebur (cocklebur; [5]) | Plant response rating, Crabgrass, Large (large crabgrass; [7]) | Plant response rating, Pigweed (pigweed; [4])
30: Plant response rating, Barnyardgrass (barnyardgrass [1]; [5]) | Plant response rating, Crabgrass, Large (large crabgrass; [5])
20: Crabgrass, Large plant response rating (large crabgrass; [6]) | Plant response rating, Foxtail, Giant (giant foxtail; [5]) | Plant response rating, Lambsquarters (lambsquarters; [5]) | Morningglory plant response rating (morningglory; [6]) | Velvetleaf plant response rating (velvetleaf; [6]) | Plant response rating, Oat, Wild (wild oat; [5]) | Oat, Wild plant response rating (wild oat; [6])
40: Plant response rating, Surinam Grass (Surinam grass; [5]) | Surinam Grass plant response rating (Surinam grass; [6]) | Plant response rating, Velvetleaf (velvetleaf; [5])
0: Plant response rating, Cocklebur (cocklebur; [7]) | Plant response rating, Lambsquarters (lambsquarters; [4]) | Lambsquarters plant response rating (lambsquarters; [6]) | Plant response rating, Lambsquarters (lambsquarters; [7]) | Plant response rating, Velvetleaf (velvetleaf; [7])
50: Plant response rating, Surinam Grass (Surinam grass; [4]) | Barnyardgrass plant response rating (barnyardgrass [3]; visual rating, 13 to 15 days)
60: Plant response rating, Morningglory (morningglory; [4]) | Pigweed plant response rating (pigweed; [6]) | Plant response rating, Pigweed (pigweed; [7])
80: Rice plant response rating (rice; visual rating, 13 to 15 days) | Sedge, Umbrella plant response rating ([2]; visual rating, 13 to 15 days) | Ducksalad plant response rating (ducksalad; visual rating, 13 to 15 days)
10: Barnyardgrass plant response rating (barnyardgrass [1]; [6]) | Plant response rating, Barnyardgrass (barnyardgrass [1]; [7]) | Plant response rating, Surinam Grass (Surinam grass; [7]) | Plant response rating, Cocklebur (cocklebur; [4]) | Foxtail, Giant plant response rating (giant foxtail; [6]) | Plant response rating, Foxtail, Giant (giant foxtail; [7]) | Plant response rating, Morningglory (morningglory; [7]) | Plant response rating, Velvetleaf (velvetleaf; [4]) | Plant response rating, Wheat (wheat; [5]) | Wheat plant response rating (wheat; [6])
70: Cocklebur plant response rating (cocklebur; [6]) | Plant response rating, Foxtail, Giant (giant foxtail; [4]) | Plant response rating, Morningglory (morningglory; [5])

CCn1nc(C(C)(C)C)cc1C(=O)Nc1cc(C(=O)OC(C)C)c(F)cc1F [Compound 248]
50: Cocklebur plant response rating (cocklebur; [10]) | Morningglory plant response rating (morningglory; [11]) | Rice plant response rating (rice) | Sedge, Umbrella plant response rating [2]
0: Barnyardgrass plant response rating (0 to 100 scale) (barnyardgrass [1]; [8]) | Cocklebur plant response rating (0 to 100 scale) (cocklebur; [8]) | Plant response rating, Cocklebur (cocklebur; [9]) | Lambsquarters plant response rating (0 to 100 scale) (lambsquarters; [8]) | Morningglory plant response rating (0 to 100 scale) (morningglory; [8]) | Plant response rating, Morningglory (morningglory; [9]) | Pigweed plant response rating (0 to 100 scale) (pigweed; [8]) | Velvetleaf plant response rating (0 to 100 scale) (velvetleaf; [8])
40: Barnyardgrass plant response rating (barnyardgrass [1]; [10]) | Plant response rating, Crabgrass, Large (large crabgrass; [9]) | Wheat plant response rating (wheat; [11]) | Barnyardgrass plant response rating (barnyardgrass [3])
60: Plant response rating, Surinam Grass (Surinam grass; [9]) | Plant response rating, Foxtail, Giant (giant foxtail; [9]) | Lambsquarters plant response rating (lambsquarters; [6]) | Pigweed plant response rating (pigweed; [6]) | Oat, Wild plant response rating (wild oat; [11])
80: Pigweed plant response rating (pigweed; [11])
20: Plant response rating, Barnyardgrass (barnyardgrass [1]; [9]) | Surinam Grass plant response rating (0 to 100 scale) (Surinam grass; [8]) | Surinam Grass plant response rating (Surinam grass; [11]) | Crabgrass, Large plant response rating (0 to 100 scale) (large crabgrass; [8]) | Crabgrass, Large plant response rating (large crabgrass; [11]) | Foxtail, Giant plant response rating (0 to 100 scale) (giant foxtail; [8]) | Foxtail, Giant plant response rating (giant foxtail; [6]) | Morningglory plant response rating (morningglory; [6]) | Plant response rating, Velvetleaf (velvetleaf; [9]) | Velvetleaf plant response rating (velvetleaf; [6])
70: Lambsquarters plant response rating (lambsquarters; [11])
10: Barnyardgrass plant response rating (barnyardgrass [1]; [6]) | Surinam Grass plant response rating (Surinam grass; [6]) | Crabgrass, Large plant response rating (large crabgrass; [6])
30: Cocklebur plant response rating (cocklebur; [6]) | Foxtail, Giant plant response rating (giant foxtail; [11]) | Velvetleaf plant response rating (velvetleaf; [11]) | Wheat plant response rating (wheat; [6]) | Oat, Wild plant response rating (wild oat; [6]) | Ducksalad plant response rating (ducksalad)

Cc1nn(C(C)(C)C)nc1C(=O)Nc1cccc(C(=O)N(C)C)c1 [Compound 391]
30: Barnyardgrass plant response rating (barnyardgrass [1]; [14]) | Surinam Grass plant response rating (Surinam grass; [14]) | Cocklebur plant response rating (cocklebur; [13]) | Cocklebur plant response rating (cocklebur; [14]) | Crabgrass, Large plant response rating (large crabgrass; [14]) | Foxtail, Giant plant response rating (giant foxtail; [14]) | Morningglory plant response rating (morningglory; [13])
10: Barnyardgrass plant response rating (barnyardgrass [1]; [13]) | Surinam Grass plant response rating (Surinam grass; [13]) | Crabgrass, Large plant response rating (large crabgrass; [13]) | Wheat plant response rating (wheat; [14])
40: Velvetleaf plant response rating (velvetleaf; [13])
60: Velvetleaf plant response rating (velvetleaf; [14])
90: Plant response rating (0 to 100 scale), Foxtail, Giant (giant foxtail; [12]) | Lambsquarters plant response rating (lambsquarters; [14]) | Plant response rating (0 to 100 scale), Morningglory (morningglory; [12]) | Rice plant response rating (rice) | Ducksalad plant response rating (ducksalad) | Barnyardgrass plant response rating (barnyardgrass [3])
0: Wheat plant response rating (wheat; [13]) | Oat, Wild plant response rating (wild oat; [13])
100: Plant response rating (0 to 100 scale), Barnyardgrass (barnyardgrass [1]; [12]) | Plant response rating (0 to 100 scale), Surinam Grass (Surinam grass; [12]) | Plant response rating (0 to 100 scale), Crabgrass, Large (large crabgrass; [12]) | Plant response rating (0 to 100 scale), Lambsquarters (lambsquarters; [12]) | Plant response rating (0 to 100 scale), Pigweed (pigweed; [12]) | Wheat plant response rating (wheat; 500 g ai/ha, scale 0 to 100, 0 no effect, 100 complete control, preemergence)
20: Foxtail, Giant plant response rating (giant foxtail; [13]) | Oat, Wild plant response rating (wild oat; [14])
70: Plant response rating (0 to 100 scale), Cocklebur (cocklebur; [12]) | Lambsquarters plant response rating (lambsquarters; [13]) | Morningglory plant response rating (morningglory; [14]) | Pigweed plant response rating (pigweed; [14])
50: Pigweed plant response rating (pigweed; [13])
80: Plant response rating (0 to 100 scale), Velvetleaf (velvetleaf; [12]) | Sedge, Umbrella plant response rating [2]

— US20060069132A1, “Azolecarboxamide herbicides” (priority 2004, published 2006)
